system: intravesical pressure (IVP) increase induced by carbachol; assay: Effect on the increase in intravesical pressure induced by carbachol in anesthetized dog; format: in vivo; settings: anesthetized female Beagle dogs; test compound 0.010 mg/kg intravenously 30 minutes before carbachol (1.8 μg/kg)
Protocol: Effect on the Increase in Intravesical Pressure Induced by Carbachol in Anesthetized Dog
Female Beagle dogs weighing 8.0-15.0 kg were fasted for 24 hours and maintained under halothane anesthesia. A 12F Foley catheter was lubricated with water soluble jelly, inserted into the urethral orifice and advanced approximately 10 cm until the balloon tip was placed well inside the bladder. The balloon was then inflated with 5 ml of room air and catheter slowly withdrawn just part the first resistance that was felt at the bladder neck. Urine was completely drained out through the catheter, and 30 ml of biological saline was infused. The catheter was connected to pressure transducer, and intravesical pressure (IVP) was continuously recorded. The test compound was administered intravenously at 30 minutes before the administration of carbachol (1.8 μg/kg). Percent inhibition of IVP increase by test compound was calculated by dividing IVPa (IVP increase induced by carbachol after test compound administration) by IVPb (IVP increase induced by carbachol just before test compound administration).

SMILES | Percent inhibition of IVP increase [%]
CC(C)Sc1cc(-c2ccc(CCN[C@@H](C)[C@H](O)c3ccccc3)cc2)ccc1C(=O)O.Cl [Test Compound (1), 4′-[2-[[(1S,2R)-2-Hydroxy-1-methyl-2-phenylethyl]-amino]ethyl]-3-(isopropylthio)-4-biphenylcarboxylic acid hydrochloride] | 77
CC(C)Cc1cc(-c2ccc(CCN[C@@H](C)[C@H](O)c3ccccc3)cc2)ccc1C(=O)NS(C)(=O)=O.Cl [Test Compound (2), 4′-[2-[[(1S,2R)-2-Hydroxy-1-methyl-2-phenylethyl]-amino]ethyl]-3-isobutyl-N-(methylsulfonyl)-4-biphenylcarboxamide hydrochloride] | 76
CS(=O)(=O)NC(=O)c1ccc(-c2ccc(CCNC[C@H](O)c3cccnc3)cc2)cc1OC1CCCCC1.Cl.Cl [Test Compound (3), 3-(Cyclohexyloxy)-4′-[2-[[(2R)-2-hydroxy-2-(3-pyridyl)ethyl]amino]ethyl]-N-(methylsulfonyl)-4-biphenylcarboxamide dihydrochloride] | 89
